Measured values taken from EP3290412A1, “HIV-1 NUCLEOCAPSID INHIBITORS” (Università degli Studi di Siena, priority 2016, dated 2018).
Like-named read-outs stand apart in the source and are kept apart here.

What was measured:
[1] = tested on: HIV-1 reference strain NL4-3; test: BiCycle assay (MT-2 then TZM-bl cells); type: cell-based
In short: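 MT-2 cells were infected with NL4-3 in the presence of five-fold compound dilutions. After 72 h, the supernatant was passed to TZM-bl cells. Two days later, luciferase luminescence was read and IC50 calculated, giving a readout that spans the whole replication cycle.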

NC(11-55) = NC(11-55) (Human immunodeficiency virus type 1, UniProt P12493); test: NC inhibition assay (NC-induced cTAR DNA destabilization, fluorescence); type: biochemical, HIV-1; conditions: for inhibition at 100 µM: single point screening, positive = >25% inhibition at 100µM
In short: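 Doubly labelled cTAR (0.1 µM, Alexa488/Dabcyl) pre-complexed with 1 µM Zn-loaded NC(11-55) for 15 min, then compound added for a further 15 min; run at 20 °C in Tris-HCl pH 7.5, 30 mM NaCl, 0.2 mM MgCl2. Fluorescence read at ex 480/em 520 nm. IC50 taken from dose-response fit of % inhibition of NC-induced fluorescence increase.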

[2] = target: T1, full length (1-55) HIV-1 NCp7 (Human immunodeficiency virus type 1 group M subtype B, UniProt P12493); test: Electromobility Shift Assay (EMSA), competition for ssDNA binding; conditions: NCp7 300 nM, M13mp18 ssDNA; positive = >25% inhibition at 100µM
T1 construct: recombinant full length (1-55) HIV-1 NCp7 proteins; made in house
In short: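 Recombinant NL4-3 NCp7 (300 nM in the pre-mix) was combined with compound in 20 mM Tris-HCl pH 7.4, 2 mM MgCl2, 100 mM NaCl, 1 mM DTT, then M13mp18 ssDNA was added for 25 min at 37 °C. Complexes were run on 1% agarose/0.5x TBE and stained with SybrGold. IC50 is the concentration at which bound ssDNA migrated 50% of the bound–unbound distance (triplicate).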

[3] = Human immunodeficiency virus 1, NL43, MT-2 cells 72 hours then TZM-bl cells two days, NL4-3, read-out: BiCycle IC50
[4] = Human immunodeficiency virus 1, NL43, TZM-bl, read-out: BiCycle IC50 nM

Structure (SMILES)	IC50 [1, 3] [nM]	inhibition at 100 µM (NC(11-55)) [%]	EMSA screening results [2]	IC50 [1, 4] [nM]	IC50 (NC(11-55)) [µM]	IC50 (NC(11-55); cTAR DNA 0.1 µM, 1 µM NC(11-55), 20 °C, pH 7.5, read-out: NC inhibition IC50) [µM]
C[C@@H](NC(=O)c1nc(-c2cc(OCc3ccccc3)ccn2)nc(O)c1O)C1CCCCC1 [Compound 35, (R)-2-(4-(benzyloxy)pyridin-2-yl)-N-(1-cyclohexylethyl)-5,6-dihydroxypyrimidine-4-carboxamide]	530	> 25	Positive (A compound showing >25% inhibition when tested at 100µM concentration is considered as "positive")			
C[C@@H](NC(=O)c1nc(-c2ccc(C(F)(F)F)cn2)nc(O)c1O)C1CCCCC1 [Compound 36, (R)-N-(1-cyclohexylethyl)-5,6-dihydroxy-2-(5-(trifluoromethyl)pyridin-2-yl)pyrimidine-4-carboxamide]		> 25	Positive (A compound showing >25% inhibition when tested at 100µM concentration is considered as "positive")	132	22.5	
COc1cccc(-c2nc(O)c(O)c(C(=O)N[C@H](C)C3CCCCC3)n2)n1 [Compound 37, (R)-N-(1-cyclohexylethyl)-5,6-dihydroxy-2-(6-methoxypyridin-2-yl)pyrimidine-4-carboxamide]		> 25	Positive (A compound showing >25% inhibition when tested at 100µM concentration is considered as "positive")	332	29	
C[C@H](NC(=O)c1nc(-c2ccccn2)nc(O)c1O)C1CCCCC1 [Compound 38, (S)-N-(1-cyclohexylethyl)-5,6-dihydroxy-2-(pyridin-2-yl)pyrimidine-4-carboxamide]		> 25	Positive (A compound showing >25% inhibition when tested at 100µM concentration is considered as "positive")	154	46.5	
Cc1cccnc1-c1nc(O)c(O)c(C(=O)N[C@@H](C)C2CCCCC2)n1 [Compound 39, (S)-N-(1-cyclohexylethyl)-5,6-dihydroxy-2-(3-methylpyridin-2-yl)pyrimidine-4-carboxamide]		> 25	Negative	76.5	27	
Cc1ccc(-c2nc(O)c(O)c(C(=O)N[C@H](C)C3CCCCC3)n2)nc1 [Compound 41, (R)-N-(1-cyclohexylethyl)-5,6-dihydroxy-2-(5-methylpyridin-2-yl)pyrimidine-4-carboxamide]	298	> 25	Positive (A compound showing >25% inhibition when tested at 100µM concentration is considered as "positive")			
O=C(NCCC1CCCC1)c1nc(-c2ccccn2)nc(O)c1O [Compound 43, N-(2-cyclopentylethyl)-5,6-dihydroxy-2-(pyridin-2-yl)pyrimidine-4-carboxamide]	1380	> 25	Positive (A compound showing >25% inhibition when tested at 100µM concentration is considered as "positive")			
C[C@@H](NC(=O)c1nc(-c2cccc(C(F)(F)F)n2)nc(O)c1O)C1CCCCC1 [Compound 44, (R)-N-(1-cyclohexylethyl)-5,6-dihydroxy-2-(6-(trifluoromethyl)pyridin-2-yl)pyrimidine-4-carboxamide]	936	> 25	Positive (A compound showing >25% inhibition when tested at 100µM concentration is considered as "positive")			
C[C@@H](NC(=O)c1nc(-c2cccc(N)n2)nc(O)c1O)C1CCCCC1 [Compound 45, (R)-2-(6-aminopyridin-2-yl)-N-(1-cyclohexylethyl)-5,6-dihydroxypyrimidine-4-carboxamide]		> 25	Positive (A compound showing >25% inhibition when tested at 100µM concentration is considered as "positive")	1390	30.5	
C[C@@H](NC(=O)c1nc(-c2cc(C(=O)OCc3ccccc3)ccn2)nc(O)c1O)C1CCCCC1 [Compound 46, benzyl (R)-2-(4-((1-cyclohexylethyl)carbamoyl)-5,6-dihydroxypyrimidin-2-yl)isonicotinate]		> 25	Positive (A compound showing >25% inhibition when tested at 100µM concentration is considered as "positive")	543	10	
C[C@@H](NC(=O)c1nc(-c2ccc(C(=O)NCc3ccccc3)cn2)nc(O)c1O)C1CCCCC1 [Compound 50, (R)-2-(5-(benzylcarbamoyl)pyridin-2-yl)-N(1-cyclohexylethyl)-5,6-dihydroxypyrimidine-4-carboxamide]		> 25	Positive (A compound showing >25% inhibition when tested at 100µM concentration is considered as "positive")	348	5	
C[C@@H](NC(=O)c1nc(-c2ccc(C(N)=O)cn2)nc(O)c1O)C1CCCCC1 [Compound 51, (R)-2-(5-carbamoylpyridin-2-yl)-N-(1-cyclohexylethyl)-5,6-dihydroxypyrimidine-4-carboxamide]		> 25	Negative	10600	10	
C[C@H](NC(=O)c1nc(-c2cc(C(F)(F)F)ccn2)nc(O)c1O)C1CCCCC1 [Compound 52, (S)-N-(1-cyclohexylethyl)-5,6-dihydroxy-2-(4-(trifluoromethyl)pyridin-2-yl)pyrimidine-4-carboxamide]		> 25	Positive (A compound showing >25% inhibition when tested at 100µM concentration is considered as "positive")	433	26.5	
C[C@@H](NC(=O)c1nc(-c2ccc(CNCc3ccccc3)cn2)nc(O)c1O)C1CCCCC1 [Compound 53, (R)-2-(5-((benzylamino)methyl)pyridin-2-yl)-N-(1-cyclohexylethyl)-5,6-dihydroxypyrimidine-4-carboxamide]		> 25	Negative	530	7.5	
C[C@@H](NC(=O)c1nc(-c2cccc(C(=O)OCc3ccccc3)n2)nc(O)c1O)C1CCCCC1 [Compound 54, benzyl (R)-6-(4-((1-cyclohexylethyl)carbamoyl)-5,6-dihydroxypyrimidin-2-yl)picolinate]	422	> 25	Positive (A compound showing >25% inhibition when tested at 100µM concentration is considered as "positive")			
C[C@@H](NC(=O)c1nc(-c2ccc(CO)cn2)nc(O)c1O)C1CCCCC1 [Compound 55, (R)-N-(1-cyclohexylethyl)-5,6-dihydroxy-2-(5-(hydroxymethyl)pyridin-2-yl)pyrimidine-4-carboxamide]		> 25	Positive (A compound showing >25% inhibition when tested at 100µM concentration is considered as "positive")	504		40
CC1CCC(NC(=O)c2nc(-c3ccccn3)nc(O)c2O)CC1 (stereo not drawn) [Compound 56, 5,6-dihydroxy-N-(4-methylcyclohexyl)-2-(pyridin-2-yl)pyrimidine-4-carboxamide]		> 25	Positive (A compound showing >25% inhibition when tested at 100µM concentration is considered as "positive")	341	35	
